Measured values taken from patent publication US7501430B2 (ArQule, Inc., priority 2006, dated 2009).

Biological target: T1, mutant B-RAF (Homo sapiens, UniProt P15056, V600E)
T1 construct: purchased Upstate (Charlottesville, Va.)
Assay: RAF biochemical assay (MEK-1 phosphorylation, anti-phospho MEK1/2 detection)
Details: @ 10 uM; read-out: Mutant B-RAF % inhibition
Procedure: Materials: The RAF kinases and the anti-phospho MEK1/2 antibody were from Upstate (Charlottesville, Va.). The RAF substrate used was full length N-terminal GST-MEK-1, which was expressed in E. coli and purified in-house by HPLC. All proteins were aliquoted and stored at −80° C.
Compounds were serially diluted in assay buffer containing 1% DMSO and 20 μL of test compound at a concentration 3-fold more than the final concentration, and were added to a polypropylene V-well reaction plate. Vehicle control wells received buffer only with DMSO at equivalent concentrations to the test wells. […] These reaction plates were incubated at room temperature for 30 minutes. Capture of MEK-1 was initiated by transferring 50 μl of the reaction mixture to a Nunc Maxisorp™ microplate that is designed for non-specific protein capture. After 30 minute capture of MEK-1 at room temperature, this plate was washed with TBST (6×200 μL/well) to fully terminate the reaction. The plate was then blocked for 1 hour by the addition of 100 μl/well of Superblock™ in phosphate buffered saline (PBS) blocking reagent. Plate was again washed with TBST (6 times with 200 μL/well), followed by the addition of 70 μL/well of Upstate anti-phospho MEK 1/2 diluted 1:1000 in Pierce Superblock (PBS). After a 60 minute incubation, this plate was washed with TBST (6 times with 200 μL/well), and 70 μL of the secondary antibody (Pierce Alkaline Phosphatase tagged goat anti-rabbit) prepared at 1:4000 in Superblock, were added. After a 45 minute incubation at room temperature, the wells of the microplate were washed with TBST (6 times with 200 μL/well), and thereafter 100 μl/well of Attophos™ fluorescent alkaline phosphatase substrate was added according to the manufacturer's instructions (JBL Scientific).

T1 sequence (P15056 whole entry V600E): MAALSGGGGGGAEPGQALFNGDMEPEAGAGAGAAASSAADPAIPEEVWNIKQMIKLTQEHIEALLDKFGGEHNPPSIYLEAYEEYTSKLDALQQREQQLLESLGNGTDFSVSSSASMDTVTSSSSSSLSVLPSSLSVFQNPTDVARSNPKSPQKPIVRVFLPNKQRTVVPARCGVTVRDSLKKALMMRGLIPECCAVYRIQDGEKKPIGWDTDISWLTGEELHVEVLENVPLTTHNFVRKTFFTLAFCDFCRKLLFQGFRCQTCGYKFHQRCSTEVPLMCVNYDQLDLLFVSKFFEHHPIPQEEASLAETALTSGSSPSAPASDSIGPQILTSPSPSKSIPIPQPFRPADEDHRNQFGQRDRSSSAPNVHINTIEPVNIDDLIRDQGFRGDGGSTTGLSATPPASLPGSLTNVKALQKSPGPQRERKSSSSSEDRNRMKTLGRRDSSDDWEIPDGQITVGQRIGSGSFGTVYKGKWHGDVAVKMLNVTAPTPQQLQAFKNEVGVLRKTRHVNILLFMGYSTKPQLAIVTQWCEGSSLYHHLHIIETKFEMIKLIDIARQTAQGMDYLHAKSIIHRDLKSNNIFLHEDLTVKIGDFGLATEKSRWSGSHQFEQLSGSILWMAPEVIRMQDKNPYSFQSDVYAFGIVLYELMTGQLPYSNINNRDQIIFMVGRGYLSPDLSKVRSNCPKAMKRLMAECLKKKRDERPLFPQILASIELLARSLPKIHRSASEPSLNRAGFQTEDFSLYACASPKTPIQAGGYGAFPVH

Compound | inhibition at 10 µM [%]
O=C(Nc1ccc(F)c(F)c1)N1CCC[C@@H](Nc2nccc(-c3c(-c4ccc(F)cc4)nc4occn34)n2)C1 [Example 73, (3R)-N-(3,4-difluorophenyl)-3-({4-[6-(4-fluorophenyl)imidazo[2,1-b][1,3]oxazol-5-yl]pyrimidin-2-yl}amino)piperidine-1-carboxamide] | 37
O=C(Nc1ccccc1F)N1CCC[C@@H](Nc2nccc(-c3c(-c4ccc(F)cc4)nc4occn34)n2)C1 [Example 74, (3R)-N-(2-fluorophenyl)-3-({4-[6-(4-fluorophenyl)imidazo[2,1-b][1,3]oxazol-5-yl]pyrimidin-2-yl}amino)piperidine-1-carboxamide] | 35
O=C(NCc1ccc(F)cc1)N1CCC[C@@H](Nc2nccc(-c3c(-c4ccc(F)cc4)nc4occn34)n2)C1 [Example 76, (3R)-N-(4-fluorobenzyl)-3-({4-[6-(4-fluorophenyl)imidazo[2,1-b][1,3]oxazol-5-yl]pyrimidin-2-yl}amino)piperidine-1-carboxamide] | 36
Cc1cn2c(-c3ccnc(N[C@@H]4CCCNC4)n3)c(-c3ccc(F)cc3)nc2s1 [Example 79, 4-[6-(4-fluorophenyl)-2-methylimidazo[2,1-b][1,3]thiazol-5-yl]-N-((3R)-piper-idin-3-yl]pyrimidin-2-amine] | 67
COc1cccc(-c2nc3sccn3c2-c2ccnc(N[C@@H]3CCCN(C(=O)NCc4ccccc4)C3)n2)c1 [Example 80, (3R)-N-benzyl-3-({4-[6-(3-methoxyphenyl)imidazo[2,1-b][1,3]thiazol-5-yl]pyrimidin-2-yl}amino)piperidine-1-carboxamide] | 40

Now from value to compound:

inhibition at 10 µM [%] | Compound
54 | CN(C)c1ccc(NC(=O)N2CCC[C@@H](Nc3nccc(-c4c(-c5ccc(F)c(F)c5)nc5sccn45)n3)C2)cc1 [Example 86, (3R)-3-({4-[6-(3,4-difluorophenyl)imidazo[2,1-b][1,3]thiazol-5-yl]pyrimidin-2-yl}amino)-N-[4-(dimethylamino)phenyl]pip-eridine-1-carboxamide]
53 | O=C(NCc1ccccc1)N1CCC[C@@H](Nc2nccc(-c3c(-c4ccc(F)c(F)c4)nc4sccn34)n2)C1 [Example 87, (3R)-N-benzyl-3-({4-[6-(3,4-difluorophenyl)imidazo[2,1-b][1,3]thiazol-5-yl]pyrimidin-2-yl}amino)piperidine-1-carboxamide]
54 | O=C(NCc1ccco1)N1CCC[C@@H](Nc2nccc(-c3c(-c4ccc(F)c(F)c4)nc4sccn34)n2)C1 [Example 88, (3R)-3-({4-[6-(3,4-difluorophenyl)imidazo[2,1-b][1,3]thiazol-5-yl]pyrimidin-2-yl}amino)-N-(2-furylmethyl)piperidine-1-carboxamide]
40 | COc1ccc(C(=O)N2CCC[C@@H](Nc3nccc(-c4c(-c5ccc(F)c(F)c5)nc5sccn45)n3)C2)cc1 [Example 89, 4-[6-(3,4-difluorophenyl)imidazo[2,1-b][1,3]thiazol-5-yl]-N-[(3R)-1-(4-methoxybenzoyl)piper-idin-3-yl]pyrimidin-2-amine]
61 | Cc1cn2c(-c3ccnc(N[C@@H]4CCCN(C(=O)NCc5ccco5)C4)n3)c(-c3ccc(F)cc3)nc2s1 [Example 93, (3R)-3-({4-[6-(4-fluoro-phenyl)-2-methylimidazo[2,1-b][1,3]thiazol-5-yl]pyrimidin-2-yl}amino)-N-(2-furylmethyl)piperidine-1-carboxamide]

Same assay, conditions: read-out: Mutant B-RAF % inhibition

Compound | inhibition at 10 µM [%]
COc1cccc(-c2nc3sccn3c2-c2ccnc(N[C@@H]3CCCN(C(=O)NCc4ccco4)C3)n2)c1 [Example 81, (3R)-N-(2-furylmethyl)-3-({4-[6-(3-methoxyphenyl)imi-dazo[2,1-b][1,3]thiazol-5-yl]pyrimidin-2-yl}amino)piperidine-1-carboxamide] | 50
COc1cccc(-c2nc3sccn3c2-c2ccnc(N[C@@H]3CCCN(C(=O)Nc4ccc(N(C)C)cc4)C3)n2)c1 [Example 84, (3R)-N-[4-(dimethylamino)phenyl]-3-({4-[6-(3-methoxyphenyl)imi-dazo[2,1-b][1,3]thiazol-5-yl]pyrimidin-2-yl}amino)piperidine-1-carboxamide] | 19

Same assay, conditions: read-out: Mutant B-RAF IC50

Compound | IC50 [µM]
COc1cc([N+](=O)[O-])ccc1NC(=O)N1CCC[C@@H](Nc2nccc(-c3c(-c4ccc(F)cc4)nc4occn34)n2)C1 [Example 75, (3R)-3-({4-[6-(4-fluorophenyl)imidazo[2,1-b][1,3]oxazol-5-yl]pyrimidin-2-yl}amino)-N-(2-methoxy-4-nitrophenyl)piperidine-1-carboxamide] | > 10
COc1cccc(-c2nc3sccn3c2-c2ccnc(N[C@@H]3CCCNC3)n2)c1 [Example 77, 4-[6-(3-methoxyphenyl)imidazo[2,1-b][1,3]thiazol-5-yl]-N-[(3R)-piperidin-3-yl]pyrimidin-2-amine] | 1.81
Fc1ccc(-c2nc3sccn3c2-c2ccnc(N[C@@H]3CCCNC3)n2)cc1F [Example 78, 4-[6-(3,4-difluorophenyl)imidazo[2,1-b][1,3]thiazol-5-yl]-N-[(3R)-piperidin-3-yl]pyrimidin-2-amine] | 1.26
COc1cccc(-c2nc3sccn3c2-c2ccnc(N[C@@H]3CCCN(S(=O)(=O)c4ccc(F)cc4)C3)n2)c1 [Example 82, N-{(3R)-1-[(4-fluorophenyl)sulfonyl]piper-idin-3-yl}-4-(6-(3-methoxyphenyl)imidazo[2,1-b][1,3]thiazot-5-yl]pyrimidin-2-amine] | 0.192
COc1ccc(C(=O)N2CCC[C@@H](Nc3nccc(-c4c(-c5cccc(OC)c5)nc5sccn45)n3)C2)cc1 [Example 83, N-[(3R)-1-(4-methoxybenzoyl)piperidin-3-yl]-4-[6-(3-methoxyphenyl)imidazo[2,1-b][1,3]thiazol-5-yl]pyrimidin-2-amine] | > 3
O=S(=O)(c1ccc(F)cc1)N1CCC[C@@H](Nc2nccc(-c3c(-c4ccc(F)c(F)c4)nc4sccn34)n2)C1 [Example 85, 4-[6-(3,4-difluorophenyl)imidazo[2,1-b][1,3]thiazol-5-yl]-N-{(3R)-1-[(4-fluorophenyl)sulfonyl]piperidin-3-yl}pyrimidin-2-amine] | 0.058

Now from value to compound:

IC50 [µM] | Compound
0.352 | Cc1cn2c(-c3ccnc(N[C@@H]4CCCN(S(=O)(=O)c5ccc(F)cc5)C4)n3)c(-c3ccc(F)cc3)nc2s1 [Example 91, 4-[6-(4-fluorophenyl)-2-methylimidazo[2,1-b][1,3]thiazol-5-yl]-N-{(3R)-1-[(4-fluorophenyl)sulfonyl]piper-idin-3-yl}pyrimidin-2-amine]
> 3 | Cc1cn2c(-c3ccnc(N[C@@H]4CCCN(C(=O)Nc5ccc(N(C)C)cc5)C4)n3)c(-c3ccc(F)cc3)nc2s1 [Example 94, (3R)-N-[4-(dimethyl-amino)phenyl]-3-({4-[6-(4-fluorophenyl)-2-methylimidazo[2,1-b][1,3]thiazol-5-yl]pyrimidin-2-yl}amino)piperidine-1-carboxamide]
0.147 | COc1cccc(-c2nc3sccn3c2-c2ccnc(N[C@@H]3CCCN(S(=O)(=O)c4ccc(Cl)cc4)C3)n2)c1 [Example 95, N-{(3R)-1-[(4-chlorophenyl)sulfonyl]piperidin-3-yl}-4-[6-(3-methoxyphenyl)imidazo[2,1-b][1,3]thiazol-5-yl]pyrimidin-2-amine]
